Measurements taken from PMC9315260, “Diarylamine-Guided Carboxamide Derivatives: Synthesis, Biological Evaluation, and Potential Mechanism of Action” (Frontiers in Chemistry, 2022).
“Also recorded” adds a separate entry of the source.

Key:
[1] = test system: SGC-7901 (human gastric cancer cell line); test: MTT in vitro cytotoxicity assay, SGC-7901; assay type: cell-based; conditions: for IC50: mean ± S.D.; for inhibition at 100 µM: SGC-7901, at 100 µM, read-out: Cell growth inhibition (%) SGC-7901
Experimental: (§1) The lead molecules A2 and all newly prepared diarylamine derivatives B1-13 and C1-11 were evaluated for their in vitro cytotoxic effects against SGC-7901, A875, HepG2 and MARC145 cell lines by the classical MTT [3-(4,5-dimethylthiazol-2-yl)-2,5-diphenyl tetrazolium bromide] assay ([Alley et al., 1988]; [Ke et al., 2012]; [Shi et al., 2012]; [Yu et al., 2015]; [Ke et al., 2019]; [Xu et al., 2019]; [Huang et al., 2021]) using 5-FU (5-Fluorouracil) as a control.
(§2) The cytotoxicity of target compounds was determined with MTT assay ([Alley et al., 1988]; [Ke et al., 2012]; [Shi et al., 2012]; [Yu et al., 2015]; [Ke et al., 2019]; [Xu et al., 2019]; [Huang et al., 2021]). SGC-7901, A875, HepG2 and MARC145 cell lines were obtained from Hubei Biopesticide Engineering Research Centre. All data of the experiment were analyzed with SPSS software, and all assay were performed in triplicate on three independent experiments, and measurement data were expressed as the mean ± S.D.
(§3) The in vitro cytotoxicity of the synthesized compounds against different cell lines (SGC-7901, A875, HepG2 and MARC145) was measured with MTT assay. All the data of the experiment were analyzed with SPSS software, and the 50% inhibitory concentrations (IC50) of each compound for the different cell lines were determined. A control was run for each test, and all assays were performed in triplicate on three independent experiments, and measurement data were expressed as the mean ± S.D.

[2] = test system: A875 (human melanoma cell line); test: MTT in vitro cytotoxicity assay, A875; assay type: cell-based; conditions: for IC50: mean ± S.D.; for inhibition at 100 µM: A875, at 100 µM, read-out: Cell growth inhibition (%) A875
Experimental: as §1, §2, §3

[3] = test system: HepG2 (human hepatocellular liver carcinoma cell line); test: MTT in vitro cytotoxicity assay, HepG2; assay type: cell-based; conditions: for IC50: mean ± S.D.; for inhibition at 100 µM: HepG2, at 100 µM, read-out: Cell growth inhibition (%) HepG2
Experimental: as §1, §2, §3

[4] = MTT in vitro cytotoxicity assay, MARC145; assay type: cell-based, African green monkey; conditions: African green monkey, MARC145 cells (kidney cell line, subclone of MA-104), MTT, mean ± S.D.
Experimental: as §1, §2, §3

[5] = test system: MARC145 (subclone of African green monkey kidney cell line MA-104); test: MTT in vitro cytotoxicity assay, MARC145; assay type: cell-based; conditions: Chlorocebus sabaeus, MARC145; at 100 µM; read-out: Cell growth inhibition (%) MARC145
Experimental: as §1, §2, §3

[6] = test system: SGC-7901, A875, HepG2 and MARC145 cell lines; test: MTT in vitro cytotoxicity assay, statements over the whole cell panel; assay type: cell-based
Experimental: as §1, §2, §3

Row | SMILES | melting point [°C] | IC50 ([1]; SGC-7901, Table 1, MTT) [µM] | IC50 ([2]; A875, Table 1, MTT) [µM] | IC50 ([3]; HepG2, Table 1, MTT) [µM] | IC50 ([4]; Table 1) [µM] | IC50 ([1]; SGC-7901, Table 3, MTT) [µM] | inhibition at 100 µM [1] [%] | IC50 ([2]; A875, Table 3, MTT) [µM] | inhibition at 100 µM [2] [%] | IC50 ([3]; HepG2, Table 3, MTT) [µM] | inhibition at 100 µM [3] [%] | IC50 ([4]; Table 3) [µM] | inhibition at 100 µM [5] [%] | cytotoxic effect / inhibition activity in words ([6]; IC50-based judgement, compared with 5-FU) | dose-response analysis of cell growth inhibition, in words ([6]; SGC-7901, A875, HepG2, MARC145) | inhibition activity in preliminary screening, in words ([6]; at 100 µM, inhibition rate higher than control 5-FU)
1 | NC(=O)c1ccccc1NC(=O)c1ccccc1Nc1cccc(C(F)(F)F)c1 [B1, N-(2-Carbamoylphenyl)-2-((3-(trifluoromethyl)phenyl)amino)benzamide] | 136 to 137 | > 100 | > 100 | > 100 | > 100 | – | – | – | – | – | – | – | – | – | – | –
2 | Cc1cccc(C(N)=O)c1NC(=O)c1ccccc1Nc1cccc(C(F)(F)F)c1 [B5, N-(2-Carbamoyl-6-methylphenyl)-2-((3-(trifluoromethyl)phenyl)amino)benzamide] | – | > 97 | > 97 | > 97 | > 97 | – | – | – | – | – | – | – | – | – | – | –
3 | NC(=O)c1cc(F)cc(Br)c1NC(=O)c1ccccc1Nc1cccc(C(F)(F)F)c1 [B3, 3-Bromo-5-fluoro-2-(2-((3-(trifluoromethyl)phenyl)amino)benzamido)benzamide] | 198 to 199 | 22.5 ± 4.04 | > 80 | > 80 | 38 ± 0.81 | – | – | – | – | – | – | – | – | – | – | –
4 | CNC(=O)c1cc(F)cc(Br)c1NC(=O)c1ccccc1Nc1cccc(C(F)(F)F)c1 [B4, 3-Bromo-5-fluoro-N-methyl-2-(2-((3-(trifluoromethyl)phenyl)amino)benzamido)benzamide] | 189 to 190 | > 78 | > 78 | > 78 | > 78 | – | – | – | – | – | – | – | – | – | – | –
5 | NC(=O)c1cc(Cl)ccc1NC(=O)c1ccccc1Nc1cccc(C(F)(F)F)c1 [B9, N-(2-Carbamoyl-4-chlorophenyl) -2-((3-(trifluoromethyl)phenyl)amino)benzamide] | – | > 92 | > 92 | > 92 | > 92 | – | – | – | – | – | – | – | – | – | – | –
6 | CNC(=O)c1c(Cl)cccc1NC(=O)c1ccccc1Nc1cccc(C(F)(F)F)c1 [B12, 2-Chloro-N-methyl-6-(2-((3-(trifluoromethyl)phenyl)amino)benzamido)benzamide] | 178 to 179 | > 89 | > 89 | > 89 | > 89 | – | – | – | – | – | – | – | – | – | – | –
7 | CNC(=O)c1cc(Cl)ccc1NC(=O)c1ccccc1Nc1cccc(C(F)(F)F)c1 [B10, 5-Chloro-N-methyl-2-(2-((3-(trifluoromethyl)phenyl)amino)benzamido)benzamide] | 190 to 191 | 39.4 ± 8.96 | > 89 | 49.9 ± 9.26 | 38 ± 9.84 | – | – | – | – | – | – | – | – | – | – | –
8 | NC(=O)c1ccc(Cl)cc1NC(=O)c1ccccc1Nc1cccc(C(F)(F)F)c1 [B7, N-(2-Carbamoyl-5-chlorophenyl)-2-((3-(trifluoromethyl)phenyl)amino)benzamide] | 176 to 177 | > 92 | > 92 | > 92 | > 92 | – | – | – | – | – | – | – | – | – | – | –
9 | O=C(Nc1ccc(C(F)(F)F)cc1)c1cccnc1Nc1cccc(C(F)(F)F)c1 [C8, N-(4-(Trifluoromethyl)phenyl)-2-((3-(trifluoromethyl)phenyl)amino)nicotinamide] | – | – | – | – | – | > 94 | 51.2 ± 3.5 | 55.6 ± 6.73 | 56.5 ± 3.1 | > 94 | 42.4 ± 2.6 | 57.7 ± 8.87 | 65.8 ± 2.6 | – | – | –
10 | CNC(=O)c1cc(Cl)cc(Cl)c1NC(=O)c1ccccc1Nc1cccc(C(F)(F)F)c1 [B13, 3,5-Dichloro-N-methyl-2-(2-((3-(trifluoromethyl)phenyl)amino)benzamido)benzamide] | 180 to 181 | > 83 | > 83 | > 83 | > 83 | – | – | – | – | – | – | – | – | – | – | –
11 | CNC(=O)c1ccccc1NC(=O)c1ccccc1Nc1cccc(C(F)(F)F)c1 [B2, N-Methyl-2-(2-((3-(trifluoromethyl)phenyl)amino)benzamido)benzamide] | – | > 96 | > 96 | > 96 | > 96 | – | – | – | – | – | – | – | – | – | – | –
12 | NC(=O)c1c(Cl)cccc1NC(=O)c1ccccc1Nc1cccc(C(F)(F)F)c1 [B11, N-(2-Carbamoyl-3-chlorophenyl)-2-((3-(trifluoromethyl)phenyl)amino)benzamide] | 194 to 195 | > 92 | > 92 | > 92 | > 92 | – | – | – | – | – | – | – | – | – | – | –
13 | CNC(=O)c1ccc(Cl)cc1NC(=O)c1ccccc1Nc1cccc(C(F)(F)F)c1 [B8, 4-Chloro-N-methyl-2-(2-((3-(trifluoromethyl)phenyl)amino)benzamido)benzamide] | 152 to 153 | > 89 | > 89 | > 89 | > 89 | – | – | – | – | – | – | – | – | – | – | –
14 | CNC(=O)c1cccc(C)c1NC(=O)c1ccccc1Nc1cccc(C(F)(F)F)c1 [B6, N,3-Dimethyl-2-(2-((3-(trifluoromethyl)phenyl)amino)benzamido)benzamide] | – | > 94 | > 94 | > 94 | > 94 | – | – | – | – | – | – | – | – | – | – | –

Further lines, with some results ahead:

Row | melting point [°C] | SMILES | IC50 ([1]; SGC-7901, Table 1, MTT) [µM] | IC50 ([2]; A875, Table 1, MTT) [µM] | IC50 ([3]; HepG2, Table 1, MTT) [µM] | IC50 ([4]; Table 1) [µM] | IC50 ([1]; SGC-7901, Table 3, MTT) [µM] | inhibition at 100 µM [1] [%] | IC50 ([2]; A875, Table 3, MTT) [µM] | inhibition at 100 µM [2] [%] | IC50 ([3]; HepG2, Table 3, MTT) [µM] | inhibition at 100 µM [3] [%] | IC50 ([4]; Table 3) [µM] | inhibition at 100 µM [5] [%] | cytotoxic effect / inhibition activity in words ([6]; IC50-based judgement, compared with 5-FU) | dose-response analysis of cell growth inhibition, in words ([6]; SGC-7901, A875, HepG2, MARC145) | inhibition activity in preliminary screening, in words ([6]; at 100 µM, inhibition rate higher than control 5-FU)
15 | 82 to 83 | O=C(Nc1ccccc1C(F)(F)F)c1ccccc1Nc1cccc(C(F)(F)F)c1 [C3, N-(2-(Trifluoromethyl)phenyl)-2-((3-(trifluoromethyl)phenyl)amino)benzamide] | – | – | – | – | 29.7 ± 4.03 | 78.6 ± 2.9 | > 94 | 56.4 ± 2.5 | 24.2 ± 3.21 | 88.5 ± 3.2 | > 94 | 23.5 ± 2.1 | – | – | –
16 | 75 to 76 | O=C(Nc1cccc(C(F)(F)F)c1)c1ccccc1Nc1cccc(C(F)(F)F)c1 [C5, N-(3-(Trifluoromethyl)phenyl)-2-((3-(trifluoromethyl)phenyl)amino)benzamide] | – | – | – | – | 6.39 ± 1.53 | 89.6 ± 5.4 | 8.54 ± 2.17 | 93.7 ± 3.2 | 10.1 ± 0.8 | 88.9 ± 1.9 | 9.57 ± 2.15 | 92.3 ± 4.1 | good cytotoxic effect; also recorded: higher inhibition activities compared to the control 5-FU | significant concentration dependence | good inhibition activity
17 | 65 to 66 | O=C(Nc1ccccn1)c1ccccc1Nc1cccc(C(F)(F)F)c1 [C9, N-(Pyridin-2-yl)-2-((3-(trifluoromethyl)phenyl)amino)benzamide] | – | – | – | – | 42 ± 7.95 | 80.5 ± 2.5 | > 112 | 30.3 ± 4.1 | 64.2 ± 3.89 | 75 ± 2.7 | 64.7 ± 3.02 | 56.5 ± 3.3 | – | – | –
18 | 139 to 140 | O=C(Nc1ccccc1C(F)(F)F)c1cccnc1Nc1cccc(C(F)(F)F)c1 [C4, N-(2-(Trifluoromethyl)phenyl)-2-((3-(trifluoromethyl)phenyl)amino)nicotinamide] | – | – | – | – | > 94 | 4.5 ± 0.4 | > 94 | 5.2 ± 1.5 | > 94 | 3.1 ± 1.2 | > 94 | 0 | – | – | –
19 | 161 to 162 | CC(C)c1ccc(NC(=O)c2cccnc2Nc2cccc(C(F)(F)F)c2)cc1 [C2, N-(4-Isopropylphenyl)-2-((3-(trifluoromethyl)phenyl)amino)nicotinamide] | – | – | – | – | > 100 | 26.9 ± 1.8 | > 100 | 42 ± 2.5 | > 100 | 13.1 ± 2.3 | > 100 | 15.8 ± 1.9 | – | – | –
20 | 74 to 75 | CC(C)c1ccc(NC(=O)c2ccccc2Nc2cccc(C(F)(F)F)c2)cc1 [C1, N-(4-Isopropylphenyl)-2-((3-(trifluoromethyl)phenyl)amino)benzamide] | – | – | – | – | 47 ± 9.74 | 72.3 ± 3.1 | > 100 | 43.1 ± 2 | > 100 | 42.7 ± 3.1 | > 100 | 7.5 ± 2.3 | – | – | –
